Measured values as given in patent publication US10314847B2, “Scalarane sesterterpenoid, pharmaceutical composition and topoisomerase II and Hsp90 inhibitor for treating cancer, and use and preparation method thereof” (NATIONAL DONG HWA UNIVERSITY, priority 2017, dated 2019).

Assays:
[1] = target: T1, human topoisomerase II (Homo sapiens, UniProt P11388); assay: Assay of topoisomerase II catalytic inhibitors and poisons (cell-free pHOT1 DNA relaxation/cleavage); assay type: biochemical
T1 construct: purchased Topogen
Procedure: Assay of Topoisomerase II Catalytic Inhibitors and Poisons:
Reactions were terminated by adding 2 μL of 10% SDS to facilitate trapping the enzyme in a cleavage complex, followed by the addition of 2.5 μL of proteinase K (50 μg/mL) to digest the bound protein (incubated at 37° C. for 15 minutes) and finally by adding 0.1 volume of the sample loading dye. The DNA products were analyzed via electrophoresis through vertical 2% agarose gels at 2 voltage/cm in 0.5×TAE buffer. Gels were stained with ethidium bromide (EtBr) and photographed using an Eagle Eye II system (Stratagene, La Jolla, Calif., U.S.A.). The quantitative analysis of the DNA Topo II activity was performed.

[2] = tested on: Molt 4
Text: The cell lines were obtained from the American Type Culture Collection (ATCC, Manassas, Va., U.S.A.) or the Japanese Collection of Research Biosources (JCRB) Cell Bank (Japan). […] Antibodies against XIAP, NFκB (p65), GADD, CDK 4, HSF 1, ATF 6 and β-tubulin were obtained from Santa Cruz Biotechnology (Santa Cruz, Calif., U.S.A.). The Hybond ECL transfer membrane and ECL Western blotting detection kits were obtained from Amersham Life Sciences (Amersham, U.K.).
Several cancer cell lines including leukemia K562, Molt 4, and HL 60 cells, prostate cancer LNCaP cells, colon cancer DLD-1 cells and breast cancer T-47D cells were used to evaluate the antiproliferative activity (referring to Table 2).
It is known that mitochondria are critical intracellular loci of ROS production and ROS exposure can lead to the […] opening. The antioxidant, microsomal GST1, in the inner mitochondrial membrane can interact with the mitochondrial permeability transition (MPT) regulator proteins, such as ANT and/or CypD, to form a MPT pore contributing to mitochondria-mediated cell death. In addition, mitochondrial homeostasis of tumor cells is regulated by an organelle-specific Hsp90 chaperone network.

[3] = tested on: γH2AX; assay: Western blot of γH2AX expression in Molt 4 cells; assay type: cell-based, human; details: Molt 4 cells, 0.0625, 0.125 and 0.25 μg/mL, 24 hours
Procedure: Protein expression was analyzed with Western blotting. GAPDH was used as the loading control.
In order to confirm whether the DNA damage-induced by the marine terpenoids of the present invention involved the inhibition of Topo II activity, a cell-free DNA cleavage assay using an enzyme-mediated negatively supercoiled pHOT1 plasmid DNA was applied. […] These marine terpenoids suppressed Topo II activity, resulting in the inhibition of supercoiled DNA relaxation in a dose-dependent manner (FIG. 2(A)). […] To determine whether the apoptotic mechanism of compounds 1 to 3 affects γH2AX (as a biomarker of DNA damage) induction, Western blot analysis was employed to examine the activation of γH2AX.

[4] = tested on: Molt 4 cells; assay: Annexin V/PI apoptosis assay; assay type: cell-based, human; details: Molt 4 cells, 0.0625, 0.125 and 0.25 μg/mL, 24 hours, dose-dependent
Procedure: Annexin V/Propidium Iodide (PI) Apoptosis Assay:
The externalization of phosphatidylserine (PS) and membrane integrity were quantified using an annexin V-fluorescein isothiocyanate (annexin V-FITC) staining kit. In brief, 10^6 cells were grown in 35 mm diameter plates and were labeled with annexin V-FITC (10 μg/mL) and PI (20 μg/mL) prior to harvesting. After labeling, all plates were washed with a binding buffer and harvested. Cells were resuspended in the binding buffer at a concentration of 2×10^5 cells/mL before analysis by flow cytometer FACS-Calibur (Becton-Dickinson, San Jose, Calif., U.S.A.) and CellQuest software. Approximately 10,000 cells were counted for each determination.

[5] = tested on: Molt 4 cells; assay: JC-1 staining, mitochondrial membrane potential disruption; assay type: cell-based, human; details: Molt 4 cells, 0.0625, 0.125 and 0.25 μg/mL, 24 hours, dose-dependent
Procedure: Determination of Reactive Oxygen Species (ROS) Generation, Calcium Accumulation, and Matrix Metalloproteinase (MMP) Disruption:
MMP disruption, calcium accumulation and ROS generation were detected with the JC-1 cationic dye (5 μg/mL), the fluorescent calcium indicator (Fluo 3, […]) and the carboxy derivative of fluorescein (carboxy-H2DCFDA, […]), respectively. In brief, the treated cells were labeled with a specific fluorescent dye for 30 minutes. After labeling, cells were washed with PBS and resuspended in PBS at a concentration of 1×10^6 cells/mL before analysis via flow cytometry.

[6] = tested on: human Molt 4 tumor xenograft; assay: Human leukemia Molt 4 cells xenograft animal model; assay type: in vivo, mice; details: 1.14 μg/g intraperitoneal, 33 days
Procedure: FIG. 3(A) is a diagram showing the effect of compound 3 on the tumor growth in an in vivo human Molt 4 tumor xenograft animal model. Tumor-bearing nude mice were intraperitoneally injected with solvent control (DMSO) and compound 3 (1.14 μg/g) for 33 days. […] Control, n=8; compound 3, n=7.
FIG. 3(B) is a diagram showing the effect of compound 3 on the body weight in the in vivo human Molt 4 tumor xenograft animal model. Tumor-bearing nude mice were intraperitoneally injected with solvent control (DMSO) and compound 3 (1.14 μg/g) for 33 days. The body weight were measured every other day, and the results are expressed as mean±SD. Control, n=8; compound 3, n=7.
Human Leukemia Molt 4 Cells Xenograft Animal Model:
Six-week-old male immunodeficient athymic mice were purchased from the National Laboratory Animal and Research Center (Taipei, Taiwan). All of the animals were maintained under standard laboratory conditions (temperature 24-26° C., 12-12 hour dark-light circle) and fed with a laboratory diet and water. Molt 4 cells (1×10^6) resuspended in 0.2 mL PBS were injected subcutaneously (s.c.) into the right flank of each mouse, and tumor growth was monitored every day. […] Tumor size was measured three times a week using calipers and tumor volumes were calculated according to the standard formula: width^2×length/2.

T1 sequence (P11388 whole entry): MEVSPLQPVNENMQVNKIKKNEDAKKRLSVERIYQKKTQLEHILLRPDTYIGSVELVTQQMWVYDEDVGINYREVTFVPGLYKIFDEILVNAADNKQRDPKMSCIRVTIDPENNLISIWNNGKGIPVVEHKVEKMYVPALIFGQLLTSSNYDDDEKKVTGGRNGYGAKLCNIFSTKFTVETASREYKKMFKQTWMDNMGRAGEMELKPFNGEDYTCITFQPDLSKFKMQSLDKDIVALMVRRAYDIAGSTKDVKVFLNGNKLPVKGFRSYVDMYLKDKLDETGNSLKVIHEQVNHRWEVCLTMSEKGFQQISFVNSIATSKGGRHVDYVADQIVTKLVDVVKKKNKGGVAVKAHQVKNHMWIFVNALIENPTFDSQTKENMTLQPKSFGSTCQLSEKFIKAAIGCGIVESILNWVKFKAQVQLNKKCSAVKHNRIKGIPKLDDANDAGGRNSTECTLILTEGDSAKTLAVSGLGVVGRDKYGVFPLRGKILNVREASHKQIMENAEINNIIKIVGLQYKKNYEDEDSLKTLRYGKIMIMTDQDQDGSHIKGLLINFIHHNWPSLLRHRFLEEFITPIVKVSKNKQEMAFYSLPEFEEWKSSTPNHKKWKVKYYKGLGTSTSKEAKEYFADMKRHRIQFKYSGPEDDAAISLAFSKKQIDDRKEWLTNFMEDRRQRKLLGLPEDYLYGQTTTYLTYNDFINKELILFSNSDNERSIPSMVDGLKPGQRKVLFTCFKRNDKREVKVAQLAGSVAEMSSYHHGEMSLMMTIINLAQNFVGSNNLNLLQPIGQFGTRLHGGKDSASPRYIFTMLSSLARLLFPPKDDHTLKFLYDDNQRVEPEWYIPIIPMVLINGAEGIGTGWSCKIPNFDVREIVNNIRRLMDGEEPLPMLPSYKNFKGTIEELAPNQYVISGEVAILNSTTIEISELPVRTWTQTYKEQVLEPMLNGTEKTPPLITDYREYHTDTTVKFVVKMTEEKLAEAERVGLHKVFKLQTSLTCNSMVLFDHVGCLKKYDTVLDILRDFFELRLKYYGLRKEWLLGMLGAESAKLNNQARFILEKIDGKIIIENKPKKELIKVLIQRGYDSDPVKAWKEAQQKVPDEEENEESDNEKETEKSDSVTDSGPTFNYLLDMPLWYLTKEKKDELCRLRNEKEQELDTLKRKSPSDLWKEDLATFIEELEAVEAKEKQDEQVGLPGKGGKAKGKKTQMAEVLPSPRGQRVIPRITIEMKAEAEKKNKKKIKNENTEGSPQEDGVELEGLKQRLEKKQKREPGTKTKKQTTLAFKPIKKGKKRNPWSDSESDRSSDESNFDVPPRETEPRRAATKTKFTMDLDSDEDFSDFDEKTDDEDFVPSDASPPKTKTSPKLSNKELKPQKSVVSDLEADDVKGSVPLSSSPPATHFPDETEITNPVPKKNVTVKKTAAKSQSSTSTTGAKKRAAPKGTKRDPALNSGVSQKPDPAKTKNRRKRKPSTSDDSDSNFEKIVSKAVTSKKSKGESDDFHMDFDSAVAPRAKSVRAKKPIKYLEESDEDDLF

Compound | IC50 ([1]; cell-free system, read-out: Topo II activity IC50 (converted)) | Cytotoxic effect IC50, Molt 4 [2] | Expression of γH2AX (DNA damage biomarker) [3] | Apoptotic population (annexin-V/PI) [4] | Mitochondrial membrane potential (JC-1) [5] | inhibition at 0.08 µg/mL ([1]; 0.08 μg/mL) | inhibition at 0.312 µg/mL ([1]; 0.312 μg/mL) | inhibition at 1.25 µg/mL ([1]; 1.25 μg/mL) | inhibition at 5 µg/mL ([1]; 5 μg/mL) | inhibition at 20 µg/mL ([1]; 20 μg/mL) | Topo II activity IC50 ([1]; cell-free system) | Mice body weights versus control [6]
CC[C@@H](O)CC(=O)O[C@@H]1C[C@@H]2[C@@]3(C)CCC[C@](C)(CC)[C@@H]3CC[C@@]2(C)[C@@H]2CC=C(C(C)=O)[C@H](C=O)[C@@]12C (relative stereo) [Compound 2, 12β-(3′β-hydroxypentanoyloxy)-20,24-dimethyl-24-oxo-scalara-16-en-25-al] | 719 nM | 0.30 µg/mL | significantly enhanced the expression of γH2AX in a dose-dependent manner | increase in the apoptotic population | disruption in mitochondrial membrane potential |  |  |  |  |  |  | 
CC(C)=CCC/C(C)=C/CC/C(C)=C/CC/C(C)=C/CC1=CC(=O)C=CC1=O [Compound 3, 2-tetraprenil-1,4-benzochinone] |  | 0.34 µg/mL | activation of DNA damage was not observed | increase in the apoptotic population | disruption in mitochondrial membrane potential | 7% | 13% | 28% | 90% | 98% | 0.43 µg/mL | no significant difference
